Molecular target: his6-Siah1 (aa 81-282) (Homo sapiens, UniProt Q8IUQ4)
Experiment: Siah-1 peptide-binding antagonists, primary screen, biochemical, fluorescence polarization, rhodamine-plectin, uHTS (AID 1817)
Conditions: not given

his6-Siah1 (aa 81-282), sequence (Q8IUQ4 whole entry, looked up, the tested form may be a part): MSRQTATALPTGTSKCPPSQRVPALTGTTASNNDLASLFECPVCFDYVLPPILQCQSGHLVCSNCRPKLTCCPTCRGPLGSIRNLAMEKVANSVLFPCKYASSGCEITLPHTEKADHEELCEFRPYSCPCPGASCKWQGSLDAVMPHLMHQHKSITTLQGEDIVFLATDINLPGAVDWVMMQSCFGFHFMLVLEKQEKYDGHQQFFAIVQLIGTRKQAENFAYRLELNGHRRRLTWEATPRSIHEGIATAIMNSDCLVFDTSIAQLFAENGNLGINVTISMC

| SMILES | IC50 |
| --- | --- |
| C[N+]1(CCNC(=O)CN=O)CCCCC1 | > 200 µM |
| CCOC(=O)C1(C)CC(=Nc2ccc(O)cc2)C(=O)N1c1ccc(O)cc1 (centres undefined) | > 200 µM |
| CC1(C)Cc2c(sc(N=CN3CCCCCC3)c2C#N)C(C)(C)N1 | > 200 µM |
| COc1cc(NS(=O)(=O)c2ccc(NC(=S)NC(=O)C=Cc3ccc(F)cc3)cc2)ncn1 | > 200 µM |
| CN1/C(=C\C=C\C2=[N+](C)c3ccc4ccccc4c3C2(C)C)C(C)(C)c2ccccc21 [1,1,3-trimethyl-2-[(E,3Z)-3-(1,3,3-trimethyl-2-indolylidene)prop-1-enyl]benzo[e]indol-3-ium;perchlorate] | > 200 µM |
| CN(Cc1c(C(=O)NN=Cc2ccc(F)cc2)nnn1-c1nonc1N)C1CCCCC1 [1-(4-amino-1,2,5-oxadiazol-3-yl)-5-[[cyclohexyl(methyl)amino]methyl]-N-[(4-fluorophenyl)methylideneamino]triazole-4-carboxamide] | > 200 µM |
| Fc1ccc(C=NNC(=S)Nc2cccnc2)cc1F [1-[[3,4-bis(fluoranyl)phenyl]methylideneamino]-3-pyridin-3-yl-thiourea] | > 200 µM |
| CCN(CC)CCOC(=O)c1ccc(N=CC(C#N)c2nc(-c3cc4ccccc4oc3=O)cs2)cc1 (centres undefined) [2-(diethylamino)ethyl 4-[[(Z)-2-cyano-2-[4-(2-oxochromen-3-yl)-1,3-thiazol-2-yl]ethenyl]amino]benzoate] | 11.2 µM |
| CCOC(=O)C1=C(C)N=c2sc(=Cc3ccc(OCC(=O)O)cc3)c(=O)n2C1c1ccc(Cl)cc1 (centres undefined) [2-[4-[[5-(4-chlorophenyl)-6-ethoxycarbonyl-7-methyl-3-oxidanylidene-5H-[1,3]thiazolo[3,2-a]pyrimidin-2-ylidene]methyl]phenoxy]ethanoic acid] | > 200 µM |
| CCN(CC)c1ccc(C=c2sc3nnc(-c4ccccc4Cl)n3c2=O)cc1 [3-(2-chlorophenyl)-6-[4-(diethylamino)benzylidene][1,3]thiazolo[2,3-c][1,2,4]triazol-5(6H)-one] | > 200 µM |
| COC(=O)c1cccc(Cn2c(Cl)c(C=NNC(=O)c3ccccc3Cl)sc2=O)c1 [3-{4-Chloro-5-[(2-chloro-benzoyl)-hydrazonomethyl]-2-oxo-thiazol-3-ylmethyl}-benzoic acid methyl ester] | > 200 µM |
| O=C(Nc1ccc(Br)cc1)c1ccc(-n2c(O)c3c(c2O)CC=CC3)cc1 [4-[1,3-bis(oxidanylidene)-3a,4,7,7a-tetrahydroisoindol-2-yl]-N-(4-bromophenyl)benzamide] | 18.6 µM |
| CC(C)(C)c1cc(-c2cs/c(=N\c3ccccc3)n2Cc2ccc(C(=O)O)cc2)cc(C(C)(C)C)c1O [4-[[4-(3,5-ditert-butyl-4-oxidanyl-phenyl)-2-phenylazanyl-1,3-thiazol-3-ium-3-yl]methyl]benzoic acid;bromide] | > 200 µM |
| O=C(NN=Cc1cccc(Br)c1)c1ccc(Br)cc1 [4-bromanyl-N-[(3-bromophenyl)methylideneamino]benzamide] | > 200 µM |
| COc1ccc(NC2=NC(=O)SC2=Cc2ccc(N(C)C)cc2)cc1 [(5Z)-5-[[4-(dimethylamino)phenyl]methylidene]-4-(4-methoxyanilino)-1,3-thiazol-2-one] | > 200 µM |
| CCOC(=O)C(C#N)=c1sc(=C2C=Cc3ccccc3N2CC)c(=O)n1CC [MLS000534135] | > 200 µM |
| O=C(NN=Cc1ccc(OC(=O)c2cccs2)cc1)c1cccc(F)c1 [MLS000576933] | > 200 µM |
| O=C(O)c1ccc(C=NNC(=O)c2ccc(CN3c4cccc5cccc(c45)S3(=O)=O)cc2)cc1 [MLS001003216] | > 200 µM |
| CC[n+]1c(/C=C/N(C)c2ccccc2)sc2ccc(Cl)cc21 [N-[(E)-2-(5-chloro-3-ethyl-1,3-benzothiazol-3-ium-2-yl)ethenyl]-N-methylaniline;perchlorate] | > 200 µM |
| CCN(CC)c1ccc(C=NC(C#N)C(=N)C#N)cc1 (centres undefined) [SMR000023871] | > 200 µM |
| Cc1ccc(S(=O)(=O)N[N-][C+]2C3CC4CC(C3)CC2C4)cc1[N+](=O)[O-] [SMR000241699] | > 200 µM |
| Cc1cc(C)nc(NN=C2C(=O)N(Cc3ccc(Cl)cc3)c3ccccc32)n1 [SMR000248022] | > 200 µM |
| C=c1c(C#N)c2[nH]c(N)c(C#N)c(C)c-2c1=Cc1ccc(-c2ccccc2C(=O)O)o1 [SMR000277284] | 20.6 µM |
| CCN(CC)CCOC(=O)c1ccc(N=CC(C#N)c2nc(-c3ccc(OC)c(OC)c3)cs2)cc1 (centres undefined) [SMR000434079] | 12.5 µM |
| COC(=O)c1cc(NC(=O)c2ccccc2)c(=O)oc1CC=Nc1ccc(Oc2ccccc2)cc1 [methyl 5-benzamido-6-oxidanylidene-2-[(E)-2-[(4-phenoxyphenyl)amino]ethenyl]pyran-3-carboxylate] | > 200 µM |

Same assay, conditions: inactive by the depositor's call

| SMILES | IC50 |
| --- | --- |
| CCCCNc1c2c3c(cccc3n(C)c1=O)C(=O)c1ccccc1-2 [1-Butylamino-3-methyl-3H-naphtho[1,2,3-de]quinoline-2,7-dione] | 23.1 µM |
| CC1(C)OC(C)(C)C(=CNc2ccc(O)cc2)C1=O [4-[(4-hydroxyanilino)methylene]-2,2,5,5-tetramethyldihydro-3(2H)-furanone] | 48.2 µM |

Molecular target: not listed separately
Experiment: PubChem AID 1817
Conditions: not given

| SMILES | IC50 |
| --- | --- |
| CCN1C(=O)C(=CNc2ccc(N3CCOCC3)cc2)C(=O)N(CC)C1=S | 200 µM |
| O=C1CCCC(=O)C1=NNc1ccc(C(=O)O)cc1 [SMR000370092] | 200 µM |

From BindingDB's records for doi:10.7270/Q2QZ28D7 (Burnham Center For Chemical Genomics, 2009)
